Test results published in patent US9668995B2, “Treatment of motor fluctuations” (Motac Neuroscience Limited, priority 2000, dated 2017).

Tested on: MPTP-lesioned marmoset model of Parkinson's disease
Test: L-DOPA-induced fluctuations in locomotion in the MPTP-lesioned marmoset model of Parkinson's disease
Type: in vivo, Marmosets (Callithrix jacchus)
Details: 8-OH PIPAT 10 mg/kg co-administered with L-DOPA 8 mg/kg, locomotion assessed every 5 minutes over six hours
Protocol: The effect of the 5-HT1a-receptor agonist 8-OH-PIPAT on L-DOPA-induced fluctuations in locomotion was assessed in the MPTP-lesioned marmoset model of Parkinson's disease.
Marmosets (Callithrix jacchus) (bred in a closed colony at the University of Manchester) are rendered parkinsonian by subcutaneous injection of 2 mg kg^−1 MPTP for 5 consecutive days. The marmosets are allowed to recover for a minimum of 10 weeks until their parkinsonism becomes stable.
A quantitative assessment of locomotor activity was assessed every 5 minutes for the duration of the experiment using computer-based activity monitors.
Locomotion was measured over a six hour period using Benwick activity monitors. These locomotion monitors consist of a visually-shielded open-field arena, the perimeter of which is surrounded by a series of infra-red beams arranged at 5 cm intervals. PC-based software (Amlogger) assesses the number of beams broken. The number of beams broken as part of a locomotor movement (mobile counts) was measured.
Marmosets were split into two groups. The first group received L-DOPA (8 mg/kg) and vehicle for 8-OH PIPAT only whereas the second group received L-DOPA (8 mg/kg) and 8-OH PIPAT (10 mg/kg).

## CCCN(C/C=C/I)C1CCc2cccc(O)c2C1 (racemic) [8-OH-PIPAT, (RS)-trans-8-hydroxy-2-[N-n-propyl-N-(3′-iodo-2′-propenyl)amino]tetralin]
  L-DOPA-stimulated 'on-time' (locomotor activity, mobile counts): increase in L-DOPA-stimulated ‘on-time’
